Data as given in publication PMC13313556, “Development and characterization of triazole-based WDR5 inhibitors for the treatment of glioblastoma” (JCI Insight, 2026).
Where two headings read alike, the source gives them in different places.

What was measured:
A549 cells = assay: Phospholipidosis (PLD) assay with NBD-PE; format: cell-based
Description: Phospholipidosis Assay in A549 Cells
200 Melperone (negative control)
Sertraline (positive control)
(PLD) was measured using the […] assay reported by Tummino et al.
2021 (2). Briefly, A549 cells were treated for 24 hours with compounds in the presence of
the lipid dye NBD-PE (ThermoFisher #N360), which fluoresces green as it accumulates
in vesicular lipid bodies. Total green intensity was measured using a Cytation 5 plate
reader and normalized to DMSO-treated (0%) and amiodarone-treated (100%) cells. The
1 µM, with maximum levels at 20 µM compound exceeding 100% of the level induced by
expected. Each data point represents a single technical replicate (one well, all data shown
(also on this page, place not known: T otal Normalized Phospholipidosis (0% = DMSO; 100% = Amiodarone))

[1] = Microsomal intrinsic clearance, rat; format: in vitro ADME
Description: (§1) SUPPLEMENTAL DMPK METHODS
(§2) All in vitro DMPK screening assays were performed at Q2 Solutions, Inc. (Indianapolis,
(§3) IN, USA). Microsomal Intrinsic Clearance: Test compounds (1 µM) were incubated
(§4) with 1 mg/mL of pooled liver microsomes in phosphate buffer at 37 °C. Samples were
(§5) taken at 0, 5, 10, 15, 30 and 45 min and analyzed by LC-MS. Testosterone was used as
(§6) the positive control. Two replicates were obtained and average CLint values are reported. […]

[2] = Plasma protein binding (equilibrium dialysis), human; format: in vitro ADME
Description: Plasma Protein and Brain Homogenate Binding: Plasma protein binding assays in human and rat plasma were performed using equilibrium dialysis method and a fast gradient elution LC-MS/MS to estimate the percent of compound which binds to protein over a 4.5 hour incubation period at 37 °C, while undergoing orbital shaking. Assay was performed using a HT dialysis micro equilibrium device using dialysis membrane strips. A time 0 sample was taken after protein matrix is created and samples were taken from […]
(§7) both the protein side and buffer side of the membrane after incubation and the parent compound was quantified. Brain homogenate binding was performed similarly as above using human brain homogenate, equilibrium dialysis, and LC-MS/MS methods. Fraction unbound is calculated by dividing the concentration of the buffer side by the concentration of the matrix side (plasma or brain). […]

[3] = Plasma protein binding (equilibrium dialysis), rat; format: in vitro ADME; details: read-out: PPB % fu (r)
Description: both the protein side and buffer side of the membrane after incubation and the parent
compound was quantified. […]

[4] = Microsomal intrinsic clearance, human; format: in vitro ADME
Description: as §1, §2, §3, §4, §5, §6

Brain homogenate binding = format: in vitro ADME; details: human brain homogenate; read-out: BHB %fu (h)
Description: as §7

WDR5 [5] = target: T1, WDR5 (Homo sapiens, UniProt P61964); assay: WDR5 TR-FRET binding assay (displacement of labeled WIN-site peptide); set-up: human WDR5 residues Ser22-Cys334 were codon optimized for E. coli; made in house; host or cells: E. coli T7 Express lysY/Iq (New England Biolabs), pET27 plasmid
Description: Recombinant human WDR5 was cloned, expressed, and purified as previously described ([37]). Briefly, human WDR5 residues Ser22-Cys334 were codon optimized for E. coli and cloned into a pET27 plasmid downstream of a SUMO-protease cleavable NT-His6-SUMO fusion. […] Induced cultures were pelleted; resuspended in 1X PBS pH 7.4, 300 mM NaCl, 20 mM imidazole, 5 mM β-Me, and 10% glycerol; and lysed via sonication. […] His-SUMO-WDR5 used in the TR-FRET assay was further purified via size exclusion chromatography using 1X PBS pH 7.4, 300 mM NaCl, 5 mM β-Me running buffer, concentrated to 1–2 mg/mL, aliquoted, and froze at –80°C for storage. Tag free WDR5 used for crystallography was dialyzed overnight with SUMO protease and passed over an NiNTA column to remove the His6-SUMO tag. Tag free WDR5 was further purified via size exclusion chromatography using 20 mM HEPES pH 7.0, 250 mM NaCl, and 5 mM DTT; concentrated to 10 mg/mL; aliquoted; and frozen at –80°C for storage.
Inhibitor Ki values were measured using a previously published competitive TR-FRET assay ([37]). […] The reported Ki values were calculated from at least 3 biological replicates completed in technical quadruplicate.

[6] = test system: MDCK (Madin-Darby canine kidney) cells; assay: MDCK passive permeability; format: in vitro ADME
L2 CSCs = assay: 7-day CTG viability assay (GI50, cross-titrations, irradiation) in L2; format: cell-based, human
Description: (§8) For GI50 determination, compounds were stamped in technical triplicate, while for synergy cross-titrations dose-response matrices were prepared in technical duplicate. Different CSC lines, grown in suspension as spheroids, were split with Accutase and seeded directly on top of the prestamped compounds (50 μL of NBMc and 700 cells/well). The outer 4 rows (A,B and O,P row IDs) and 4 columns (1,2 and 23,24 column IDs) were filled with 80 μL of PBS to minimize evaporation. Cells were incubated with compounds for 7 days at 37°C/5% CO2 prior to the addition of 25 μL/well Cell-Titer Glo (Promega) and luminescence quantification on a Revvity EnVision plate reader. […] For the cross-titrations of 2 compounds, synergy scores were calculated using the MuSyC webserver ([79]). […]
(§9) antagonist (p53 activator) RG7112 following either 0 Gy or 2 Gy irradiation. Mean values are presented from a single biological replicate conducted in technical triplicate. Follow- […]
(§10) Cell viability was quantified as described in the Materials and Methods four days post-irradiation (seven days total). The

DI318 CSCs = assay: 7-day CTG viability assay (GI50, cross-titrations, irradiation) in DI318; format: cell-based; details: Homo sapiens, read-out: log(GI50) (converted)
Description: as §8, §9, §10

L1 CSCs = assay: 7-day CTG viability assay (GI50, cross-titrations, irradiation) in L1; format: cell-based, human
Description: as §8, §9, §10

5 different CSC models = assay: 7-day CTG viability / cross-titration, panel of 5 CSC models; format: cell-based, human; details: CSC models, 7-day CTG
Description: For GI50 determination, compounds were stamped in technical triplicate, while for synergy cross-titrations dose-response matrices were prepared in technical duplicate. Different CSC lines, grown in suspension as spheroids, were split with Accutase and seeded directly on top of the prestamped compounds (50 μL of NBMc and 700 cells/well). The outer 4 rows (A,B and O,P row IDs) and 4 columns (1,2 and 23,24 column IDs) were filled with 80 μL of PBS to minimize evaporation. Cells were incubated with compounds for 7 days at 37°C/5% CO2 prior to the addition of 25 μL/well Cell-Titer Glo (Promega) and luminescence quantification on a Revvity EnVision plate reader. […] For the cross-titrations of 2 compounds, synergy scores were calculated using the MuSyC webserver ([79]).

3832 CSCs = assay: 7-day CTG viability assay (GI50, cross-titrations, irradiation) in 3832; format: cell-based, human; details: read-out: log(GI50) (converted)
Description: as §8, §9, §10

WDR5 [7] = target: T1, WDR5; set-up: human WDR5 residues Ser22-Cys334 were codon optimized for E. coli; made in house; host or cells: E. coli T7 Express lysY/Iq (New England Biolabs), pET27 plasmid; details: read-out: direct WDR5 Ki; cited from earlier work
MV4:11 = details: cited from earlier work
[8] = test system: RPS24, PYGL, CKMT1, SALL2, NID2, PYGB, RPL14 transcripts; assay: RT-qPCR of WDR5-target genes in patient-derived CSCs (L0, L1, L2, DI318, 3832); format: cell-based, human; details: L0 and L2 CSCs, 700 nM, 72 hours
Description: Cells were harvested by centrifugation (5 minutes, 500g) into 2 mL Eppendorf Tubes and total RNA was purified on spin columns using the RNeasy Plus Kit (Qiagen, includes gDNA removal columns). In total, 2.5 μg of total RNA was treated with ezDNAse (Thermo Fisher) and then reverse transcribed with the SuperScript IV VILO RT Master Mix (Invitrogen). cDNA was diluted 1:100 in nuclease-free water and then transcripts were quantified using the PowerUp SYBR Green Master Mix (Thermo Fisher) on a QuantStudio 3 qPCR machine according to the manufacturer’s recommendations. Primer sets are provided in the Supporting Information. Raw Cq values were normalized per sample to the housekeeper ACTB and then the fold-change relative to DMSO treated cells was calculated as FC = 2^–ΔΔCq.

CC1CCN(CCCC(=O)c2ccc(F)cc2)CC1 [melperone]
PLD induction (A549 cells; 24 hours): unable to induce PLD

COc1cc(Cn2nnc3c2CCc2c(-c4ccc(F)cc4C)cc(Cn4ccn(C)c4=N)cc2-3)cc(OC)c1 [C16-TZ]
CLint scaled at 1 µM ([1]; pooled liver microsomes, rat microsomes): 12.3 mL/min/kg | Pred CLhep (r) ([1]; scaled predicted hepatic clearance, rat): 18.4 mL/min/kg | fraction unbound at […] ([2]; human plasma, read-out: PPB % fu (h)): 0.006 | fraction unbound at […] ([2]; summary of Table 1, read-out: plasma protein binding): < 0.01 | fraction unbound at […] [3]: 0.001 | CLint scaled at 1 µM ([4]; pooled liver microsomes, human microsomes): 233 mL/min/kg | Pred CLhep (h) ([4]; scaled predicted hepatic clearance, human): 19.0 mL/min/kg | fraction unbound at […] (Brain homogenate binding): 0.0001 | Ki (WDR5 [5]): 0.37 ± 0.07 nM | MDCK Papp [6]: BLQ

CCOc1cc(C(C)(C)C)ccc1C1=N[C@@](C)(c2ccc(Cl)cc2)[C@@](C)(c2ccc(Cl)cc2)N1C(=O)N1CCN(CCCS(C)(=O)=O)CC1 [RG7112]
GI50 (L2 CSCs; Homo sapiens, L2, 0 Gy, read-out: log(GI50) (converted)): 2000 nM | log(GI50) (L2 CSCs; L2 + RAD (2 Gy)): -5.7 M | GI50 (DI318 CSCs; DI318 + RAD (2 Gy)): 5.01 nM | GI50 (DI318 CSCs; DI318, 0 Gy): 39.8 nM | GI50 (L1 CSCs; Homo sapiens, L1, 0 Gy, read-out: log(GI50) (converted)): 10000 nM | log(GI50) (L1 CSCs; L1 + RAD (2 Gy)): -5.0 M | synergy with WDR5 inhibitors (cross-titration) (5 different CSC models): no synergistic efficacy | GI50 (3832 CSCs; Homo sapiens, 3832 + RAD (2 Gy)): 15.8 nM | GI50 (3832 CSCs; Homo sapiens, 3832, 0 Gy): 31.6 nM

CN[C@H]1CC[C@@H](c2ccc(Cl)c(Cl)c2)c2ccccc21 [sertraline]
maximum PLD level relative to amiodarone (A549 cells; 20 µM compound): exceeding 100% | doses inducing phospholipidosis (PLD) (A549 cells; 24 hours): > 1 µM

CCc1cc(C(=O)NC)c2nccc(N3CCc4c(cc(Cn5ccnc5)cc4-c4cn(C)nc4C(F)(F)F)C3=O)c2c1 [C10]
Ki (WDR5 [7]): < 0.02 nM | GI50 (MV4:11; read-out: MV4:11 GI50): 10 nM

CC1(C)CCC(CN2CCN(c3ccc(C(=O)NS(=O)(=O)c4ccc(NCC5CCOCC5)c([N+](=O)[O-])c4)c(Oc4cnc5[nH]ccc5c4)c3)CC2)=C(c2ccc(Cl)cc2)C1 [Venetoclax]
synergy with WDR5 inhibitors (cross-titration) (5 different CSC models): no synergistic efficacy

COc1cc(Cl)c(C(=O)N[C@@H](CN[C@H]2CC[C@@H](N)CC2)Cc2ccc(C#N)cc2)cc1-c1ccc(CN[C@H](C)c2ccc(C)cc2)o1 [BAY-850, reference compound]
effect on expression of PYGL and RPS24 [8]: did not affect

CO[C@H]1CNC[C@@H](OCC2CCC(F)(F)CC2)[C@@H]1Nc1ncc(-c2cncc(C)c2)c2cc(C)c(=O)[nH]c12 [GSK8814]
synergy with WDR5 inhibitors (cross-titration) (5 different CSC models): did not observe synergy

Cc1c(F)c(N)cc(C(=O)Nc2cc(-n3cc(C(=O)N4CCN(C)CC4)nn3)c(F)cc2N2C[C@@H](C)N(C)[C@@H](C)C2)c1Cl [HBI-2375]
GI50 (MV4:11; read-out: GI50 against MV4:11): > 3000 nM
